Patent US9051310B2, “Nicotinamide derivative or salt thereof” (FUJIFILM Corporation, priority 2011, dated 2015)
pIC50: −log10 of the molar value.

Biological target: T1, glutathione S-transferase (GST)-linked full-length human Syk protein (Homo sapiens, UniProt P43405)
T1 construct: glutathione S-transferase (GST)-linked full-length human Syk protein; purchased Carna Biosciences; host or cells: Baculovirus expression system
Test: Syk enzyme assay
Assay type: biochemical
Details: 0.83 nM Syk, time-resolved fluorescence; read-out: IC50 of Syk-inhibitory activity
How it was run: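 Phosphotyrosine on a biotin-peptide substrate (0.5 μM) was read by time-resolved fluorescence at 615 and 665 nm with Eu-anti-pTyr antibody and APC-streptavidin after 1 h EDTA stop.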

| Compound | pIC50 |
| --- | --- |
| COc1cc(Nc2nc(N[C@@H](CN)Cc3ccccc3)c(F)cc2C(N)=O)cc(OC)n1 [Example 2-418, (R)-6-((1-amino-3-phenylpropan-2-yl)amino)-2-((2,6-dimethoxypyridin-4-yl)amino)-5-fluoronicotinamide] | 7.30 to 8.00 |
| CN(C)c1nn(C)c2ccc(Nc3nc(N[C@@H](CN)Cc4ccccc4)c(F)cc3C(N)=O)cc12 [Example 2-421, (R)-6-((1-amino-3-phenylpropan-2-yl)amino)-2-((3-(dimethylamino)-1-methyl-1H-indazol-5-yl)amino)-5-fluoronicotinamide] | 7.30 to 8.00 |
| Cc1ncc(Nc2nc(N[C@H](Cc3ccccc3)[C@H](C)N)c(F)cc2C(N)=O)cc1-n1nccn1 [Example 2-422, 6-(((2R,3S)-3-amino-1-phenylbutan-2-yl)amino)-5-fluoro-2-((6-methyl-5-(2H-1,2,3-triazol-2-yl)pyridin-3-yl)amino)nicotinamide] | 7.30 to 8.00 |
| Cc1ncc(Nc2nc(N[C@H](Cc3ccccc3)[C@H](C)N)c(F)cc2C(N)=O)cc1F [Example 2-426, 6-(((2R,3S)-3-amino-1-phenylbutan-2-yl)amino)-5-fluoro-2-((5-fluoro-6-methylpyridin-3-yl)amino)nicotinamide] | 7.30 to 8.00 |
| C[C@H](N)[C@H](Nc1nc(Nc2ccc3c(c2)c(N2CCCC2)nn3C)c(C(N)=O)cc1F)C1CC1 [Example 2-430, 6-(((1R,2S)-2-amino-1-cyclopropylpropyl)amino)-5-fluoro-2-((1-methyl-3-(pyrrolidin-1-yl)-1H-indazol-5-yl)amino)nicotinamide] | 7.30 to 8.00 |
| Cn1nc(N2CCCC2=O)c2cc(Nc3nc(N[C@@H]4CCCC[C@@H]4N)c(F)cc3C(N)=O)ccc21 [Example 2-431, 6-(((1R,2S)-2-aminocyclohexyl)amino)-5-fluoro-2-((1-methyl-3-(2-oxopyrrolidin-1-yl)-1H-indazol-5-yl)amino)nicotinamide] | 7.30 to 8.00 |
| CC(C)c1ccc(Nc2nc(N[C@@H]3CCCC[C@@H]3N)c(F)cc2C(N)=O)cc1 [Example 2-448, 6-(((1R,2S)-2-aminocyclohexyl)amino)-5-fluoro-2-((4-isopropylphenyl)amino) nicotinamide] | 7.30 to 8.00 |
| CC[C@@H](Nc1nc(Nc2ccc3c(c2)c(N(C)CCOC)nn3C)c(C(N)=O)cc1F)[C@H](C)N [Example 2-458, 6-(((2S,3R)-2-aminopentan-3-yl)amino)-5-fluoro-2-((3-((2-methoxyethyl)(methyl)amino)-1-methyl-1H-indazol-5-yl)amino)nicotinamide] | > 8.00 |
| CCC[C@@H](Nc1nc(Nc2ccc3c(c2)c(N(C)CCOC)nn3C)c(C(N)=O)cc1F)[C@H](C)N [Example 2-459, 6-(((2S,3R)-2-aminohexan-3-yl)amino)-5-fluoro-2-((3-((2-methoxyethyl)(methyl)amino)-1-methyl-1H-indazol-5-yl)amino)nicotinamide] | 7.30 to 8.00 |
| COCCN(C)c1nn(C)c2ccc(Nc3nc(N[C@H](C4CC4)[C@H](C)N)c(F)cc3C(N)=O)cc12 [Example 2-460, 6-(((1R,2S)-2-amino-1-cyclopropylpropyl)amino)-5-fluoro-2-((3-((2-methoxyethyl)(methyl)amino)-1-methyl-1H-indazol-5-yl)amino)nicotinamide] | > 8.00 |
| CC[C@H](N)[C@@H](C)Nc1nc(Nc2ccc3c(c2)c(N(C)CCOC)nn3C)c(C(N)=O)cc1F [Example 2-461, 6-(((2R,3S)-3-aminopentan-2-yl)amino)-5-fluoro-2-((3-((2-methoxyethyl)(methyl)amino)-1-methyl-1H-indazol-5-yl)amino)nicotinamide] | 7.30 to 8.00 |
| COCCNc1nn(C)c2ccc(Nc3nc(N[C@@H]4CCCC[C@@H]4N)c(F)cc3C(N)=O)cc12 [Example 2-462, 6-(((1R,2S)-2-aminocyclohexyl)amino)-5-fluoro-2-((3-((2-methoxyethyl)amino)-1-methyl-1H-indazol-5-yl)amino)nicotinamide] | 7.30 to 8.00 |
| CC[C@@H](Nc1nc(Nc2ccc3c(c2)c(NCCOC)nn3C)c(C(N)=O)cc1F)[C@H](C)N [Example 2-463, 6-(((2S,3R)-2-aminopentan-3-yl)amino)-5-fluoro-2-((3-((2-methoxyethyl)amino)-1-methyl-1H-indazol-5-yl)amino)nicotinamide] | 7.30 to 8.00 |
| COCCNc1nn(C)c2ccc(Nc3nc(N[C@H](C4CC4)[C@H](C)N)c(F)cc3C(N)=O)cc12 [Example 2-464, 6-(((1R,2S)-2-amino-1-cyclopropylpropyl)amino)-5-fluoro-2-((3-((2-methoxyethyl)amino)-1-methyl-1H-indazol-5-yl)amino)nicotinamide] | 7.30 to 8.00 |
| Cc1ncc(Nc2nc(N[C@@H](CN)Cn3cccn3)c(F)cc2C(N)=O)cc1F [Example 2-469, (S)-6-((1-amino-3-(1H-pyrazol-1-yl)propan-2-yl)amino)-5-fluoro-2-((5-fluoro-6-methylpyridin-3-yl)amino)nicotinamide] | 7.30 to 8.00 |
| CC[C@H](N)[C@H](Nc1nc(Nc2cccnc2)c(C(N)=O)cc1F)C1CC1 [Example 2-485, 6-(((1R,2S)-2-amino-1-cyclopropylbutyl)amino)-5-fluoro-2-(pyridin-3-ylamino)nicotinamide] | 7.30 to 8.00 |
| CC[C@H](N)[C@H](Nc1nc(Nc2cncc(F)c2)c(C(N)=O)cc1F)C1CC1 [Example 2-486, 6-(((1R,2S)-2-amino-1-cyclopropylbutyl)amino)-5-fluoro-2-((5-fluoropyridin-3-yl)amino)nicotinamide] | 7.30 to 8.00 |

Continued, values first:

| pIC50 | Compound |
| --- | --- |
| > 8.00 | CCn1ncc2cc(Nc3nc(N[C@H](Cc4ccccc4)[C@H](C)N)c(F)cc3C(N)=O)ccc21 [Example 2-423, 6-(((2R,3S)-3-amino-1-phenylbutan-2-yl)amino)-2-((1-ethyl-1H-indazol-5-yl)amino)-5-fluoronicotinamide] |
| > 8.00 | C[C@H](N)[C@@H](Cc1ccccc1)Nc1nc(Nc2ccc3c(c2)c(N(C)C)nn3C)c(C(N)=O)cc1F [Example 2-424, 6-(((2R,3S)-3-amino-1-phenylbutan-2-yl)amino)-2-((3-(dimethylamino)-1-methyl-1H-indazol-5-yl)amino)-5-fluoronicotinamide] |
| > 8.00 | CC[C@@H](Nc1nc(Nc2ccc3c(c2)c(N2CCCC2)nn3C)c(C(N)=O)cc1F)[C@H](C)N [Example 2-429, 6-(((2S,3R)-2-aminopentan-3-yl)amino)-5-fluoro-2-((1-methyl-3-(pyrrolidin-1-yl)-1H-indazol-5-yl)amino)nicotinamide] |
| > 8.00 | Cc1ccc(Nc2nc(N[C@@H]3CCCC[C@@H]3N)c(F)cc2C(N)=O)cc1 [Example 2-435, 6-(((1R,2S)-2-aminocyclohexyl)amino)-5-fluoro-2-(p-tolylamino)nicotinamide] |
| > 8.00 | NC(=O)c1cc(F)c(N[C@@H]2CCCC[C@@H]2N)nc1Nc1cccc(OC(F)(F)F)c1 [Example 2-444, 6-(((1R,2S)-2-aminocyclohexyl)amino)-5-fluoro-2-((3-(trifluoromethoxy)phenyl)amino)nicotinamide] |
| > 8.00 | Cc1ccc(Nc2nc(N[C@@H]3CCCC[C@@H]3N)c(F)cc2C(N)=O)cc1Cl [Example 2-445, 6-(((1R,2S)-2-aminocyclohexyl)amino)-2-((3-chloro-4-methylphenyl)amino)-5-fluoronicotinamide] |
| > 8.00 | CC(C)Oc1cccc(Nc2nc(N[C@@H]3CCCC[C@@H]3N)c(F)cc2C(N)=O)c1 [Example 2-446, 6-(((1R,2S)-2-aminocyclohexyl)amino)-5-fluoro-2-((3-isopropoxyphenyl)amino) nicotinamide] |
| > 8.00 | NC(=O)c1cc(F)c(N[C@@H]2CCCC[C@@H]2N)nc1Nc1ccc(F)c(F)c1 [Example 2-447, 6-(((1R,2S)-2-aminocyclohexyl)amino)-2-((3,4-difluorophenyl)amino)-5-fluoronicotinamide] |
| > 8.00 | CC(C)Oc1ccc(Nc2nc(N[C@@H]3CCCC[C@@H]3N)c(F)cc2C(N)=O)cc1 [Example 2-449, 6-(((1R,2S)-2-aminocyclohexyl)amino)-5-fluoro-2-((4-isopropoxyphenyl)amino) nicotinamide] |
| > 8.00 | CCc1cccc(Nc2nc(N[C@@H]3CCCC[C@@H]3N)c(F)cc2C(N)=O)c1 [Example 2-450, 6-(((1R,2S)-2-aminocyclohexyl)amino)-2-((3-ethylphenyl)amino)-5-fluoronicotinamide] |
| > 8.00 | C[C@H](N)[C@H](Nc1nc(Nc2cnc(N3CCOCC3)c(F)c2)c(C(N)=O)cc1F)c1cccc(F)c1 [Example 2-451, 6-(((1R,2S)-2-amino-1-(3-fluorophenyl)propyl)amino)-5-fluoro-2-((5-fluoro-6-morpholinopyridin-3-yl)amino)nicotinamide] |
| > 8.00 | C[C@H](N)[C@H](Nc1nc(Nc2ccc3c(c2)c(N(C)C)nn3C)c(C(N)=O)cc1F)c1cccc(F)c1 [Example 2-452, 6-(((1R,2S)-2-amino-1-(3-fluorophenyl)propyl)amino)-2-((3-(dimethylamino)-1-methyl-1H-indazol-5-yl)amino)-5-fluoronicotinamide] |
| > 8.00 | Cc1ncc(Nc2nc(N[C@H](c3cccc(F)c3)[C@H](C)N)c(F)cc2C(N)=O)cc1F [Example 2-453, 6-(((1R,2S)-2-amino-1-(3-fluorophenyl)propyl)amino)-5-fluoro-2-((5-fluoro-6-methylpyridin-3-yl)amino)nicotinamide] |
| > 8.00 | COCCn1ncc2cc(Nc3nc(N[C@H](c4ccc(OC)cc4)[C@H](C)N)c(F)cc3C(N)=O)ccc21 [Example 2-455, 6-(((1R,2S)-2-amino-1-(4-methoxyphenyl)propyl)amino)-5-fluoro-2-((1-(2-methoxyethyl)-1H-indazol-5-yl)amino)nicotinamide] |
| > 8.00 | COCCN(C)c1nn(C)c2ccc(Nc3nc(N[C@@H]4CCOC[C@@H]4N)c(F)cc3C(N)=O)cc12 [Example 2-457, 6-(((3R,4R)-3-aminotetrahydro-2H-pyran-4-yl)amino)-5-fluoro-2-((3-((2-methoxyethyl)(methyl)amino)-1-methyl-1H-indazol-5-yl)amino)nicotinamide] |
